# Assay results reported in patent US20050215435A1, “Phenylalanine derivatives as herbicides” (priority 2002, published 2005).
# Assays:
# Experiment in all cases: Greenhouse herbicidal action, post-emergence
# Format in all cases: in vivo
# [1] = test system: Setaria italica
# Source text: (§1) The seeds of the test plants were sown separately for each species. For the post-emergence treatment, the test plants were first grown to a height of from 3 to 15 cm, depending on the plant habit, and only then treated with the active compounds which had been suspended or emulsified in water. The test plants were for this purpose either sown directly and grown in the same containers, or they were first grown separately as seedlings and transplanted into the test containers a few days prior to treatment. […] (active substance). Depending on the species, the plants were kept at 10-25° C. or 20-35° C. The test period extended over from 2 to 4 weeks. During this time, the plants were tended, and their response to the individual treatments was evaluated. Evaluation was carried out using a scale from 0 to 100. 100 means no emergence of the plants, or complete destruction of at least the aerial parts and 0 means no damage, or normal course of growth. The plants used in the greenhouse experiments were of the following species: [table]
# [2] = test system: Sinapis alba
# Source text: as §1
# [3] = test system: Abutilon theophrasti
# Source text: as §1
# [4] = test system: Chenopodium album; conditions: 1.0 kg of a.s./ha
# Source text: as §1
compound,measurement,setting,value
"CNC(=O)C(NC(=O)c1ccccc1C(F)(F)F)C(C)c1ccccc1F (single isomer, unassigned) [Compound I-32]",control of Setaria italica,[1]; 0.095 kg of a.s./ha,very good control
same,control of Sinapis alba,[2]; 0.095 kg of a.s./ha,very good control
CNC(=O)[C@H](Cc1ccccc1C)NC(=O)c1ccccc1C(F)(F)F [Compound I-19],control of Setaria italica,[1]; 0.5 kg of a.s./ha,very good control
same,control of Abutilon theophrasti,[3]; 0.5 kg of a.s./ha,very good control
CNC(=O)[C@H](Cc1cccc(F)c1)NC(=O)c1cccc(F)c1C(F)(F)F [Compound I-24],control of Sinapis alba,[2]; 0.5 kg of a.s./ha,very good control
same,control of Abutilon theophrasti,[3]; 0.5 kg of a.s./ha,very good control
CNC(=O)[C@H](Cc1cccc(F)c1)NC(=O)c1cc(F)ccc1C(F)(F)F [Compound I-25],control of Setaria italica,[1]; 0.5 kg of a.s./ha,very good control
same,control of Sinapis alba,[2]; 0.5 kg of a.s./ha,very good control
same,control of Abutilon theophrasti,[3]; 0.5 kg of a.s./ha,very good control
CNC(=O)[C@H](Cc1ccccc1C)NC(=O)c1ccc(Cl)c(C(F)F)c1Cl [Compound I-49],control of Setaria italica,[1]; 1.91 kg of a.s./ha,very good control
same,control of Setaria italica,[1]; 3.0 kg of a.s./ha,very good control
same,control of Sinapis alba,[2]; 1.91 kg of a.s./ha,very good control
same,control of Sinapis alba,[2]; 3.0 kg of a.s./ha,very good control
same,control of Abutilon theophrasti,[3]; 1.91 kg of a.s./ha,very good control
same,control of Abutilon theophrasti,[3]; 3.0 kg of a.s./ha,very good control
CNC(=O)[C@H](Cc1ccccc1C)NC(=O)c1ccc(F)cc1C(F)(F)F [Compound I-51],control of Chenopodium album,[4],very good control
same,control of Abutilon theophrasti,[3]; 1.0 kg of a.s./ha,very good control
CNC(=O)[C@H](Cc1ccccc1C)NC(=O)c1cccc(F)c1C(F)(F)F [Compound I-53],control of Setaria italica,[1]; 0.5 kg of a.s./ha,very good control
same,control of Sinapis alba,[2]; 0.5 kg of a.s./ha,very good control
same,control of Abutilon theophrasti,[3]; 0.5 kg of a.s./ha,very good control
CNC(=O)C(NC(=O)c1ccc(F)cc1C(F)(F)F)C(C)c1ccccc1F (stereo not drawn) [II-7],control of Chenopodium album,[4],very good control
same,control of Abutilon theophrasti,[3]; 1.0 kg of a.s./ha,very good control
CNC(=O)C(Cc1ccccc1)NC(=O)c1ccc(F)cc1C(F)(F)F (stereo not drawn) [II-91],control of Sinapis alba,[2]; 2.0 kg of a.s./ha,very good control
same,control of Abutilon theophrasti,[3]; 2.0 kg of a.s./ha,very good control
CNC(=O)C(Cc1ccccc1C)NC(=O)c1ccccc1S(C)(=O)=O (stereo not drawn) [II-111],control of Setaria italica,[1]; 1.0 kg of a.s./ha,very good control
same,control of Sinapis alba,[2]; 1.0 kg of a.s./ha,very good control
same,control of Abutilon theophrasti,[3]; 1.0 kg of a.s./ha,very good control
Nα-(2-trifluoromethyl-4-fluorobenzoyl)-2-(1-methyl-1-(2-fluorophenyl))glycine-N-methylamide [II-15],control of Setaria italica,[1]; 0.5 kg of a.s./ha,very good control
same,control of Sinapis alba,[2]; 0.5 kg of a.s./ha,very good control
same,control of Abutilon theophrasti,[3]; 0.5 kg of a.s./ha,very good control
